From ChEMBL document CHEMBL3102775, “UK-1 and structural analogs are potent inhibitors of hepatitis C virus replication” (Bioorg Med Chem Lett, 2014)
Calls of active or inactive are those of the source. The calls are words filed in the database; no cut-off is given here.

Columns and labels:
[1] = Binding affinity to double stranded DNA assessed as effect on Eco-RI-digested pT7-7 plasmid mobilization at 20 to 500 uM after 60 mins by agarose gel mobility assay
[2] = tested on: Human immunodeficiency virus 1; assay: Antiviral activity against HIV1; assay type: functional, organism-based
[3] = Binding affinity to double stranded RNA assessed as effect on Eco-RI-digested pT7-7 plasmid mobilization at 20 to 500 uM after 60 mins by agarose gel mobility assay
[4] = Selectivity index, ratio of CC50 for human Huh7ET cells to EC50 for HCV infected in human Huh7ET cells; parameters: species or system Huh-7
[5] = Cytotoxicity against human Huh7ET cells by neutral red assay; assay type: cell-based, Huh-7
Hepacivirus hominis = assay: Inhibition of HCV NS5B RNA dependent RNA polymerase at 100 uM
Hepatitis C virus [6] = assay: Antiviral activity against HCV infected in human Huh7ET cells assessed as inhibition of viral replication by luciferase reporter gene assay/RNA blot hybridization analysis; assay type: functional, organism-based, Hepacivirus hominis; conditions: Huh-7
[7] = Inhibition of HCV ATPase activity of NS3 NTPase/helicase domain expressed in Escherichia coli BL21 after 30 mins by thin layer chromatography in presence of [gamma-32P]ATP; parameters: species or system Hepacivirus hominis
[8] = Inhibition of HCV NS3 NTPase/helicase domain expressed in Escherichia coli BL21 using dsRNA as substrate assessed as strand separation of [32P]-labeled oligonucleotides after 30 mins by SDS-gel electrophoresis; parameters: species or system Hepacivirus hominis
[9] = Inhibition of HCV NS3 NTPase/helicase domain expressed in Escherichia coli BL21 using dsDNA as substrate assessed as strand separation of [32P]-labeled oligonucleotides after 30 mins by SDS-gel electrophoresis; parameters: species or system Hepacivirus hominis
[10] = Inhibition of Dengue virus helicase
[11] = Selectivity index, ratio of CC50 for human Huh7ET cells by luciferase reporter gene assay to EC50 for HCV infected in human Huh7ET cells by luciferase reporter gene assay; parameters: species or system Huh-7
Hepatitis C virus [12] = assay: Antiviral activity against HCV infected in human Huh7ET cells assessed as inhibition of viral replication by luciferase reporter gene assay; assay type: functional, organism-based, Hepacivirus hominis; conditions: Huh-7
[13] = Cytotoxicity against human Huh7ET cells by luciferase reporter gene assay; assay type: cell-based; conditions: huh-7

Row | Structure (SMILES) | Activity [1] | Activity [2] | Activity [3] | Ratio CC50/EC50 [4] | CC50 ([5]; Huh7ET cells) [µM] | inhibition (Hepacivirus hominis) [%] | EC50 (Hepatitis C virus [6]) [µM] | IC50 [7] [µM] | IC50 [8] [µM] | IC50 [9] [µM] | IC50 [10] [µM] | CC50 ([5]; huh-7) [µM] | Ratio CC50/EC50 [11] | EC50 (Hepatitis C virus [12]) [µM] | CC50 [13] [µM]
1 | COC(=O)c1cccc2oc(-c3ccc4ccc(OCc5ccccc5)cc4c3O)nc12 | inactive | inactive | inactive | >37 | > 20 | < 30 | 0.54 | > 1200 | 20 | 2.6 | > 700 | – | – | – | –
2 | COC(=O)c1cccc2oc(-c3cccc4oc(-c5ccccc5O)nc34)nc12 | – | – | – | 22 | – | < 30 | 0.77 | > 1200 | > 1200 | 380 | > 700 | 17 | – | – | –
3 | COC(=O)c1cccc2oc(-c3ccccc3O)nc12 | – | inactive | – | 11 | – | < 30 | 0.5 | > 1200 | > 1800 | > 1800 | > 700 | 5.4 | – | – | –
4 | O=C(O)c1cccc2oc(-c3ccccc3O)nc12 | – | inactive | – | 6.6 | – | < 30 | 0.53 | > 1200 | > 1800 | > 1800 | > 700 | 3.5 | – | – | –
5 | COC(=O)c1cccc2oc(-c3ccc4ccccc4c3O)nc12 | – | inactive | – | 4.7 | – | < 30 | 0.53 | > 1200 | 590 | 540 | > 700 | 2.5 | – | – | –
6 | CNC(=O)c1cccc2oc(-c3ccccc3O)nc12 | – | inactive | – | – | – | < 30 | – | > 1200 | > 1800 | > 1800 | > 700 | – | 4.5 | 1.4 | 6.3
7 | COC(=O)c1cccc2oc(-c3ccc4c(OCc5ccccc5)cccc4c3O)nc12 | inactive | inactive | inactive | >10 | > 20 | < 30 | 2.1 | > 1200 | 20 | 3.8 | > 700 | – | – | – | –
